The values that follow come from US20240307350A1, “5-METHOXY-N,N-DIMETHYLTRYPTAMINE (5-MEO-DMT) FOR TREATING DEPRESSION” (GH RESEARCH IRELAND LIMITED, priority 2019, published 2024).

Series [1] in a line: Clinical trial in healthy volunteers: 5-MeO-DMT and bufotenine plasma levels. It is filed as in vivo, human. Particulars: all other samples (1 hour and 3 hours) after inhaled 5-MeO-DMT. On the procedure:
A clinical trial was performed in which 5-MeO-DMT free base (purity not less than 99%) at different dose levels was administered via inhalation (as described in Example 1) in a single day to healthy volunteers who had prior experiences with the use of synthetic or naturally-occurring psychedelics. The trial was reviewed and approved by the relevant national competent authority and local medical ethics committee. The trial consisted of two parts: Part A, where single doses of 5-MeO-DMT dosage amounts of 2 mg, 6 mg, 12 mg and 18 mg were administered; and Part B, where an initial 5-MeO-DMT dosage amount of 6 mg was administered, and then, unless the participant had already experienced a peak psychedelic experience based on the PPEQ or the supervising physician had decided that further dose increases were inappropriate based on observed side effects, further subsequent dosage amounts of 12 mg and 18 mg were administered with about 3 hours in between each administration. Participants in Part A only received one dose and were not allowed to receive higher doses in later parts of Part A and were not allowed to participate in Part B. Participants were closely monitored for 3.5 hours after the last dose, with additional follow-up visits 1 day and 7 days after dosing. Various safety related measures (e.g., adverse event reporting, safety laboratory analyses, vital signs, ECG, CADSS, PVT, DSST, Prospective Memory Task (PMT)) as well as measures of the intensity of the psychedelic effects (MEQ30, ASC, PPEQ, subjective description of the psychedelic experience) were recorded. Pharmacokinetic analysis of 5-MeO-DMT and bufotenine plasma levels was performed at 1 hour and 3 hours after drug administration in Part A, and at 3 hours after drug administration in Part B.

In a further series the target is 5-HT2A receptor (Homo sapiens, UniProt P28223). Particulars: compared with 5-MeO-DMT; cited from earlier work.
5-HT2A receptor, sequence (P28223 whole entry): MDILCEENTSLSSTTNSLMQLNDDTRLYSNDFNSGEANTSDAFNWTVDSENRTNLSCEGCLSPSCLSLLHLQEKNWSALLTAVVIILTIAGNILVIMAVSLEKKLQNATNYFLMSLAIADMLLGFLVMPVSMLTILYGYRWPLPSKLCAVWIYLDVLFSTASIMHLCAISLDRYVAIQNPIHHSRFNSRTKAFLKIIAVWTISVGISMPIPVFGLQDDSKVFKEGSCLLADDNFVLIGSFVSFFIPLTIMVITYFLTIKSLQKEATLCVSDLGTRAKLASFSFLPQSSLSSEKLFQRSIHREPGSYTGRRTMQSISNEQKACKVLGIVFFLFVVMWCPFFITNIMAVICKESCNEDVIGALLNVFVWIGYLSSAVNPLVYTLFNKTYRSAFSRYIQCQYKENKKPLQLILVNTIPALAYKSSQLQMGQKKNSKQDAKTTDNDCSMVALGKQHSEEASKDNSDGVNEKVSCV
Series [2] has as its system patients with personality trait disturbance or anxiety. Conditions: LSD as an aid to psychotherapy; cited from earlier work.
Series [3] deals with patients with alcohol dependence. Particulars: therapy with LSD; cited from earlier work.

Molecules are shown by their SMILES.

Consider `CN(C)CCc1c[nH]c2ccc(O)cc12` [bufotenine], for which, in series [1], the “plasma levels of the 5-MeO-DMT metabolite bufotenine” value is “undetectable”. Besides, the “affinity for the 5-HT2A receptor” value on 5-HT2A receptor is reported as “much higher affinity than 5-MeO-DMT”.
As to `CCN(CC)C(=O)[C@@H]1C=C2c3cccc4[nH]cc(c34)C[C@H]2N(C)C1` [LSD, lysergic acid diethylamide], the “patients with an outcome of "much improved" or "improved"” value in series [2] is listed as “over 90%”. Also, the “patients changed (stop drinking or are much improved)” value in series [3] is reported as 50%.
